# Measured values from patent publication US6994986B2, “In vitro synthesis of polypeptides by optimizing amino acid metabolism” (The Board of Trustees of the Leland Stanford University, priority 1999, dated 2006).
# Tests used:
# E. coli S30 extract [1] = test: Cell-free protein synthesis, PEP system (phosphoenol pyruvate / pyruvate kinase ATP regeneration); format: biochemical, Escherichia coli
# Protocol: (§1) Throughout the examples to follow, two standard methods were used for cell-free protein synthesis. The first uses phosphoenol pyruvate (PEP) and pyruvate kinase to regenerate ATP from ADP. This is termed the PEP system. The second uses pyruvate and pyruvate oxidase to regenerate ATP. This is called the pyruvate system.
# 57 mM Hepes-KOH (pH 8.2), 1.2 mM ATP, 0.85 mM each of GTP, UTP and CTP, 1 mM DTT, 0.64 mM cAMP, 200 mM potassium glutamate, 80 mM NH4(OAc), 15 mM Mg(OAc)2, […] folinic acid, 6.7 μg/ml plasmid, 33 μg/ml T7 RNA polymerase, 500 μM each of 20 unlabeled amino acids, [^3H] leucine (0.27 GBq/mmol), 2% PEG 8000, 20 mM PEP (phosphoenol pyruvate), and 0.24 volumes of S30 extract. […]
# (§2) Reactions were conducted for given time periods in a water bath set at 37° C. The amount of synthesized protein was estimated from the measured cold TCA-insoluble radioactivities as described (Kim et al., supra.) Radioactivities of samples were measured in a liquid scintillation counter (Beckman). […]
# (§3) The amount of synthesized protein was estimated from the measured TCA-insoluble radioactivities as described earlier (Kim et al., 1996a, supra.) Radioactivities of samples were measured in a liquid scintillation counter (Beckman LS3801). […]
# acetate kinase = acetate kinase (Escherichia coli, UniProt P0A6A3); conditions: read-out: Km value of acetate kinase for acetyl phosphate; cited from earlier work
# Sequence of acetate kinase (P0A6A3 whole entry): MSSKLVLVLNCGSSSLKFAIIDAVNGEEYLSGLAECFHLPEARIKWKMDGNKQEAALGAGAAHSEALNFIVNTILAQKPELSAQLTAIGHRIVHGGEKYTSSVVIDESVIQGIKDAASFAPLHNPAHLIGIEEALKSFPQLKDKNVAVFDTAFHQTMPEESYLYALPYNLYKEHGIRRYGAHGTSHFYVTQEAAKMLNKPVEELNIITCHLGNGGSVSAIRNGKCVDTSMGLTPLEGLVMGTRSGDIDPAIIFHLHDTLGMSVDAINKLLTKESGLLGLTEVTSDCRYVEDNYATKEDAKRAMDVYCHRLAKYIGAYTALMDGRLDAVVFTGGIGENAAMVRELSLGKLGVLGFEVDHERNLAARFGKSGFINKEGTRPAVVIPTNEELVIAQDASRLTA
# E. coli S30 extract [2] = test: Cell-free protein synthesis, pyruvate system (pyruvate / pyruvate oxidase ATP regeneration); format: biochemical, Escherichia coli
# Protocol: as §1
# T7 RNA polymerase was prepared from the culture of E. coli strain BL21 (pAR1219) according to the slightly modified procedures of Davanloo et al. (1984) Proc. Natl. Acad. Sci. U.S.A. 81: 2035–2039. S30 extract was prepared from wild type E. coli K12 (strain A19) according to the procedures reported earlier (Kim et al., supra.). The standard reaction mixture for the pyruvate system is nearly identical. […]
# as §2, §3
# arginine decarboxylase = molecular target: T1, arginine decarboxylase (Escherichia coli, UniProt P21170); test: Arginine depletion in the cell-free reaction mixture (amino acid analysis); format: biochemical, E. coli; set-up: dose or concentration left out as unconfirmed; conditions: spermidine; FIG. 5
# T1 construct: endogenous in cells; host or cells: E. coli K12 strain A19, S30 cell extract
# T1 sequence (P21170 whole entry): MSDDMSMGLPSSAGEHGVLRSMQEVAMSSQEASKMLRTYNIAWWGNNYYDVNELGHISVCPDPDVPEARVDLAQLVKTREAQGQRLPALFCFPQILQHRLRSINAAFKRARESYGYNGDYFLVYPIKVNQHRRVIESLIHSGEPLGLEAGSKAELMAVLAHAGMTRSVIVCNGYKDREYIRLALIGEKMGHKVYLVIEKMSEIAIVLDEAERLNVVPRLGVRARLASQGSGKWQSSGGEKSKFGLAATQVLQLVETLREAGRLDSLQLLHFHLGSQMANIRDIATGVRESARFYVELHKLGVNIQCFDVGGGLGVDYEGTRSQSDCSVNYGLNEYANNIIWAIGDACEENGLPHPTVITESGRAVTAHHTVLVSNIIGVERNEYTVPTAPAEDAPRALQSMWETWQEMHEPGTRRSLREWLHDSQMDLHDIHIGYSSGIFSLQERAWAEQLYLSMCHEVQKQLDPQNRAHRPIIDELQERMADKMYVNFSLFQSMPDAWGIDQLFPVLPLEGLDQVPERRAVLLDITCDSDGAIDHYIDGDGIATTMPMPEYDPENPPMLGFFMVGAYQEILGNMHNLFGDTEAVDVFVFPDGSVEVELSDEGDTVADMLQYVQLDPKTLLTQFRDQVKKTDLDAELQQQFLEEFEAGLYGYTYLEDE
# Protocol: (§4) The observations indicated in the previous examples prompted the measurement of individual amino acid concentrations during the course of a protein synthesis reaction. In this case, a pyruvate-driven reaction of 900 μl was started. Samples of 100 μl were taken each hour, diluted 1:1 with cold water and deproteinized by adding 200 μl of cold 10% TCA (trichloroacetic acid) solution. After centrifugation the supernatant was analyzed using a Beckman 1600 amino acid analyzer. […] This is a potentially serious source of reaction inefficiency. In the second case, the depletion of the three amino acids is most likely the reason that prolonging the reaction required amino acids addition.
# The data shown in FIGS. 3 and 4 indicate that the degradation of three amino acids, arginine, cysteine and tryptophan is seriously limiting the efficiency and duration of the protein synthesis reaction. […] In the case of arginine, one possible cause is the action of arginine decarboxylase. This is the first enzyme in the pathway for the conversion of arginine to putrescine and spermidine, cationic molecules important for normal bacterial physiology. Putrescine and spermidine can also be produced from ornithine, but arginine is preferred when it is available. (See FIG. 10) Arginine decarboxylase is known to be feedback inhibited by spermidine. […]
# [3] = molecular target: T2, phosphoenol pyruvate synthetase (pps) (Escherichia coli, UniProt P23538); test: Aspartic acid/asparagine formation in the cell-free reaction mixture; format: biochemical, E. coli; conditions: 2.7 mM oxalic acid; FIG. 6
# T2 construct: endogenous in cells; host or cells: E. coli K12 strain A19, S30 cell extract
# T2 sequence (P23538 whole entry): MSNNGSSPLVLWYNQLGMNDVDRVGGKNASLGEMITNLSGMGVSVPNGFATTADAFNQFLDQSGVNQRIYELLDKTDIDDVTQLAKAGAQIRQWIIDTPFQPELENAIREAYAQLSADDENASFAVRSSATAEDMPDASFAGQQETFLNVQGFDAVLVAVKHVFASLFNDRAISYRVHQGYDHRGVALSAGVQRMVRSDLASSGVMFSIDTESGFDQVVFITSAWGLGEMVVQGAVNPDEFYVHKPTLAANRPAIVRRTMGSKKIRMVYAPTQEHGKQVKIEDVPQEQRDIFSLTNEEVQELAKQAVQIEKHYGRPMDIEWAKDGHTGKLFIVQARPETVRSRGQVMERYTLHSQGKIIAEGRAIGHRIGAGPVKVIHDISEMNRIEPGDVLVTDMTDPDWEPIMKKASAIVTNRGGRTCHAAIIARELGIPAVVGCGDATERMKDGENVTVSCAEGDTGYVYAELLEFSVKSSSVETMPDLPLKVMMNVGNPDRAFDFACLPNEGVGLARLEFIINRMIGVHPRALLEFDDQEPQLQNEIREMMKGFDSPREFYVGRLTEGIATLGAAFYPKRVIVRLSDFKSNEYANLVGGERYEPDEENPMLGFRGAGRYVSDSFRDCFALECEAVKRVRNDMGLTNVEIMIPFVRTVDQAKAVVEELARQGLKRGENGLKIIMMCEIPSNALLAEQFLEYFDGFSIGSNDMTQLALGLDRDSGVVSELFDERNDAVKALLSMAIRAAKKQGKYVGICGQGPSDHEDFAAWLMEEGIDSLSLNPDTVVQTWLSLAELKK
# Protocol: as §4
# The conversion of pyruvate to PEP is catalyzed by the enzyme, phosphoenol pyruvate synthetase (pps). Oxalic acid has been reported to inhibit pps. To test to see if the pps reaction is indeed responsible for aspartic acid and asparagine synthesis and to test if these reactions are reducing the protein yield, 2.7 mM oxalic acid was added to both the pyruvate system and the PEP system. […] With the pyruvate system, less pyruvate and ATP are being lost to amino acid formation. In the case with PEP as the energy source, pyruvate is the direct product after PEP transfers its phosphate to ADP. That pyruvate will then be converted back into PEP by pps, but at the cost of two ATP's for each new PEP molecule. […]
compound,measurement,setting,value
CC(=O)OP(=O)(O)O [acetyl phosphate],support of protein synthesis as energy source,E. coli S30 extract [1]; energy source in place of PEP,as efficiently as PEP
same,Km,acetate kinase,200 µM
catalase,effect on rate or duration of protein synthesis,E. coli S30 extract [2]; exogenous catalase added to the reaction mixture,did not affect either the rate or duration of protein synthesis
NCCCCNCCCN [spermidine],arginine depletion,arginine decarboxylase,significantly slow arginine depletion
O=C(O)C(=O)O [oxalic acid],protein yield,"E. coli S30 extract [1]; 2.7 mM oxalic acid, PEP system, FIG. 8",increases the protein yield
same,protein yield,"E. coli S30 extract [2]; 2.7 mM oxalic acid, pyruvate system, FIG. 7",increases the protein yield
same,formation of aspartic acid and asparagine,[3],reduced
